According to patent publication EP0347459A1, “CEPHALOSPORIN COMPOUNDS OR THEIR SALTS, PROCESS FOR THEIR PREPARATION, AND PHARMACEUTICAL COMPOSITIONS” (TEIJIN LIMITED, priority 1987, dated 1988):
≈ marks a conversion by molar mass, not a printed value.

Tests used:
Assay in all cases: In vitro antibacterial activity, agar disc dilution method
Type in all cases: cell-based
[1] = test system: E.cloacae 963; settings: Enterobacter cloacae; E.cloacae 963; Mueller Hinton agar, 10^6/ml, 37°C for 16 hours; read-out: minimum growth inhibitory concentration (MIC)
Experimental: (§1) An in vitro antibacterial activity was measured by an agar disc dilution method.
(§2) Varied test bacteria were cultivated overnight in triptophane-soybroth. A Mueller Hinton agar containing the compound of this invention in varied concentrations was streaked with one platinum loopful of each of the bacteria (number of living cells 10^6/ml).

[2] = test system: K.pneumoniae PCI602; settings: Klebsiella pneumoniae; K.pneumoniae PCI602; Mueller Hinton agar, 10^6/ml, 37°C for 16 hours; read-out: minimum growth inhibitory concentration (MIC)
Experimental: as §1, §2

[3] = test system: M.luteus ATCC9341; settings: Micrococcus luteus; M.luteus ATCC9341; Mueller Hinton agar, 10^6/ml, 37°C for 16 hours; read-out: minimum growth inhibitory concentration (MIC)
Experimental: as §1, §2

[4] = test system: P.aeruginosa IFO3445; settings: Pseudomonas aeruginosa; P.aeruginosa IFO3445; Mueller Hinton agar, 10^6/ml, 37°C for 16 hours; read-out: minimum growth inhibitory concentration (MIC)
Experimental: as §1, §2

[5] = test system: P.aeruginosa NCTC1049; settings: Pseudomonas aeruginosa; P.aeruginosa NCTC1049; Mueller Hinton agar, 10^6/ml, 37°C for 16 hours; read-out: minimum growth inhibitory concentration (MIC)
Experimental: as §1, §2

[6] = test system: P.aeruginosa PAD1; settings: Pseudomonas aeruginosa; P.aeruginosa PAD1; Mueller Hinton agar, 10^6/ml, 37°C for 16 hours; read-out: minimum growth inhibitory concentration (MIC)
Experimental: as §1, §2

[7] = test system: P.morganii IFO3445; settings: Morganella morganii; P.morganii IFO3445; Mueller Hinton agar, 10^6/ml, 37°C for 16 hours; read-out: minimum growth inhibitory concentration (MIC)
Experimental: as §1, §2

[8] = test system: P.vulgalis OX-11; settings: P.vulgalis OX-11; Mueller Hinton agar, 10^6/ml, 37°C for 16 hours; read-out: minimum growth inhibitory concentration (MIC)
Experimental: as §1, §2

[9] = test system: S. aureus Terajima; settings: Staphylococcus aureus; S. aureus Terajima; Mueller Hinton agar, 10^6/ml, 37°C for 16 hours; read-out: minimum growth inhibitory concentration (MIC)
Experimental: as §1, §2

[10] = test system: S.aureus 209p NIHJ JC1; settings: Staphylococcus aureus; S.aureus 209p NIHJ JC1; Mueller Hinton agar, 10^6/ml, 37°C for 16 hours; read-out: minimum growth inhibitory concentration (MIC)
Experimental: as §1, §2

[11] = test system: S.enteritidis G14; settings: Salmonella enterica; S.enteritidis G14; Mueller Hinton agar, 10^6/ml, 37°C for 16 hours; read-out: minimum growth inhibitory concentration (MIC)
Experimental: as §1, §2

[12] = test system: S.marcescens IAM1184; settings: Serratia marcescens; S.marcescens IAM1184; Mueller Hinton agar, 10^6/ml, 37°C for 16 hours; read-out: minimum growth inhibitory concentration (MIC)
Experimental: as §1, §2

[13] = test system: S.pyogenes Cook; settings: Streptococcus pyogenes; S.pyogenes Cook; Mueller Hinton agar, 10^6/ml, 37°C for 16 hours; read-out: minimum growth inhibitory concentration (MIC)
Experimental: as §1, §2

[14] = test system: S.typhi 901; settings: Salmonella enterica, 16 h, read-out: minimum growth inhibitory concentration (MIC)
Experimental: as §1, §2

SMILES | MIC [1] | MIC [2] | MIC [3] | MIC [4] | MIC [5] | MIC [6] | MIC [7] | MIC [8] | MIC [9] | MIC [10] | MIC [11] | MIC [12] | MIC [13] | MIC [14]
CON=C(C(=O)NC1C(=O)N2C(C(=O)[O-])=C(C[n+]3ccc4cc(O)c(O)cc4c3)CSC12)c1nsc(N)n1 [Compound I, (6R,7R)-7-[(Z)-2-(5-amino-1,2,4-thiadiazol-3-yl-2-methoxyimino)acetamide]-3-(6,7-dihydroxy-2-isoquinolinium)methyl-3-cephem-4-carboxylate] | 5 ng/mL (≈ 0.00897 µM) | 5 ng/mL (≈ 0.00897 µM) | 100 ng/mL (≈ 0.179 µM) | 12500 ng/mL (≈ 22.4 µM) | 200 ng/mL (≈ 0.359 µM) | 12500 ng/mL (≈ 22.4 µM) | 5 ng/mL (≈ 0.00897 µM) | 5 ng/mL (≈ 0.00897 µM) | 1600 ng/mL (≈ 2.87 µM) | 1600 ng/mL (≈ 2.87 µM) | 5 ng/mL (≈ 0.00897 µM) | 5 ng/mL (≈ 0.00897 µM) | 50 ng/mL (≈ 0.0897 µM) | 5 ng/mL (≈ 0.00897 µM)
Nc1nc(C(=NOCC(=O)O)C(=O)NC2C(=O)N3C(C(=O)[O-])=C(C[n+]4ccc5cc(O)c(O)cc5c4)CSC23)ns1 [Compound II, (6R,7R)-7-[(Z)-5-amino-1,2,4-thiadiazol-3-yl)-2-(carboxymethoxyimino)acetamidel-3-(6,7-dihydroxy-2-isoquinolinium)methyl-3-cephem-4-carboxylate] | 5 ng/mL (≈ 0.00831 µM) | 5 ng/mL (≈ 0.00831 µM) | 1600 ng/mL (≈ 2.66 µM) | 50 ng/mL (≈ 0.0831 µM) | 12.5 ng/mL (≈ 0.0208 µM) | 25 ng/mL (≈ 0.0416 µM) | 5 ng/mL (≈ 0.00831 µM) | 5 ng/mL (≈ 0.00831 µM) | 3100 ng/mL (≈ 5.15 µM) | 12500 ng/mL (≈ 20.8 µM) | 5 ng/mL (≈ 0.00831 µM) | 5 ng/mL (≈ 0.00831 µM) | 200 ng/mL (≈ 0.332 µM) | 5 ng/mL (≈ 0.00831 µM)
Nc1nc(C(=NOC(C(=O)O)c2ccccc2)C(=O)NC2C(=O)N3C(C(=O)[O-])=C(C[n+]4ccc5cc(O)c(O)cc5c4)CSC23)ns1 [Compound IV, (6R,7R)-7-[(Z)-2-(5-amino-l,2,4-thiadiazol-3-yl-2-[(alpha-carboxybenzyl)oxyimino]acetamide-3-(6,7-dihydroxy-2-isoquinolinium)methyl-3-cephem-4-carboxylate] | 5 ng/mL (≈ 0.00738 µM) | 5 ng/mL (≈ 0.00738 µM) | 800 ng/mL (≈ 1.18 µM) | 25 ng/mL (≈ 0.0369 µM) | 12.5 ng/mL (≈ 0.0184 µM) | 25 ng/mL (≈ 0.0369 µM) | 5 ng/mL (≈ 0.00738 µM) | 5 ng/mL (≈ 0.00738 µM) | 3200 ng/mL (≈ 4.72 µM) | 3200 ng/mL (≈ 4.72 µM) | 5 ng/mL (≈ 0.00738 µM) | 5 ng/mL (≈ 0.00738 µM) | 800 ng/mL (≈ 1.18 µM) | 5 ng/mL (≈ 0.00738 µM)
